Patent publication US9427409B2, “Composition and method for aiding sleep” (priority 2014, dated 2016)
“And” between values parts separate entries of the source, which are not always exact repeats. Equal entries are not always repeated.

Assay: In vitro pH-dependent release of each active agent from three-stage release capsules
Type: physicochemical
Conditions: individual capsules (Cap# 1-6)
Description: The capsules were designed to release the three drugs in a staged sequence controlled via pH-dependent coatings: uncoated diphenhydramine HCl for immediate release, coated zolpidem for release about 2 hours after administration, and coated lorazepam for release about 4 hours after administration.
Each capsule contained the following agents: (1) 50 mg of uncoated diphenhydramine HCl; (2) 5 mg of zolpidem tartrate in multiparticulate form coated with […]® L30 D-55, which dissolves at above pH 5.5 (with half-maximal drug release at pH 5.8 and maximal release at pH 6.3); and (3) 0.5 mg of lorazepam in multiparticulate form coated with […]® L/S 12.5 (1:1), which dissolves at above pH 6.5 (with half-maximal drug release at pH 7.2). The coatings were selected to achieve release of zolpidem tartrate with gastric emptying and release of lorazepam when the drug reaches the intestines.
Six capsules were individually tested in beakers for pH-dependent release of each active agent.

[1] = At 30 min in pH 2 (At time zero pH 2)
[2] = At 150 min in pH 6.4 (At 120 min changed to pH 6.4)
[3] = At 270 min in pH 7.2 (At 240 min changed to pH 7.2)

Compound | % Release [1] | % Release (At 30 min in pH 2 (At time zero pH 2), listed as lorazepam) | % Release [2] | % Release (At 150 min in pH 6.4 (At 120 min changed to pH 6.4), listed as lorazepam) | % Release [3] | % Release (At 270 min in pH 7.2 (At 240 min changed to pH 7.2), listed as lorazepam) | % Release (At 30 min in pH 2 (At time zero pH 2), listed as diphenhydramine HCl)
O=C1Nc2ccc(Cl)cc2C(c2ccccc2Cl)=NC1O (racemic) [Lora, (RS)-7-Chloro-5-(2-chlorophenyl)-3-hydroxy-1,3-dihydro-2H-1,4-benzodiazepin-2-one] | 0% | neither zolpidem tartrate nor lorazepam was released | 0% | but not lorazepam, was released | 81.3% and 77.2% and 80.1% and 83.2% and 70.2% and 72.1% | more than 70% | 
CN(C)CCOC(c1ccccc1)c1ccccc1 [Diph, 2-(diphenylmethoxy)-N,N-dimethylethanamine] | 93.4% and 89.8% and 98.2% and 98.7% and 96.8% and 97.3% |  | 98.0% and 100% (3×) and 99.9% (2×) |  | 99.9% and 100% (2×) and 99.8% and 99.1% and 99.2% |  | more than 89%
